Results from ChEMBL document CHEMBL2413072, “Synthesis and in vitro anticancer studies of novel C-2 arylidene congeners of lantadenes” (2013).

Assays:
Type in all cases: functional
A549 = test: Growth inhibition of human A549/ATCC cells assessed as cell growth at 10^-4 M by sulforhodamine B assay; conditions: read-out: Activity
MDA-MB-435 = test: Growth inhibition of human MDA-MB-435 cells assessed as cell growth at 10^-7 M by sulforhodamine B assay; conditions: read-out: Activity
SNB-75 = test: Growth inhibition of human SNB75 cells assessed as cell growth at 10^-8 M by sulforhodamine B assay; conditions: read-out: Activity
OVCAR-4 [1] = test: Growth inhibition of human OVCAR4 cells by sulforhodamine B assay
TK-10 [2] = test: Growth inhibition of human TK10 cells assessed as cell growth at 10^-6 M by sulforhodamine B assay; conditions: read-out: Activity
OVCAR-4 [3] = test: Growth inhibition of human OVCAR4 cells assessed as cell growth at 10^-4 M by sulforhodamine B assay; conditions: read-out: Activity
OVCAR-8 = test: Growth inhibition of human OVCAR8 cells assessed as cell growth at 10^-8 M by sulforhodamine B assay; conditions: read-out: Activity
SF-295 [4] = test: Growth inhibition of human SF295 cells assessed as cell growth at 10^-7 M by sulforhodamine B assay; conditions: read-out: Activity
MDA-MB-468 = test: Growth inhibition of human MDA-MB-468 cells assessed as cell growth at 10^-6 M by sulforhodamine B assay; conditions: read-out: Activity
NCI-H23 = test: Growth inhibition of human NCI-H23 cells by sulforhodamine B assay
SR = test: Growth inhibition of human SR cells assessed as cell growth at 10^-8 M by sulforhodamine B assay; conditions: read-out: Activity
A498 [5] = test: Growth inhibition of human A498 cells assessed as cell growth at 10^-6 M by sulforhodamine B assay; conditions: read-out: Activity
A498 [6] = test: Growth inhibition of human A498 cells by sulforhodamine B assay
SF-295 [7] = test: Growth inhibition of human SF295 cells assessed as cell growth at 10^-4 M by sulforhodamine B assay; conditions: read-out: Activity
SNB-19 [8] = test: Growth inhibition of human SNB19 cells by sulforhodamine B assay
[9] = Growth inhibition of human Hs 578T cells assessed as cell growth at 10^-4 M by sulforhodamine B assay; conditions: read-out: Activity
SK-MEL-5 = test: Growth inhibition of human SK-MEL-5 cells assessed as cell growth at 10^-8 M by sulforhodamine B assay; conditions: read-out: Activity
OVCAR-5 = test: Growth inhibition of human OVCAR5 cells assessed as cell growth at 10^-8 M by sulforhodamine B assay; conditions: read-out: Activity
DU-145 = test: Growth inhibition of human DU145 cells by sulforhodamine B assay
SNB-19 [10] = test: Growth inhibition of human SNB19 cells assessed as cell growth at 10^-7 M by sulforhodamine B assay; conditions: read-out: Activity
HOP-62 [11] = test: Growth inhibition of human HOP62 cells assessed as cell growth at 10^-6 M by sulforhodamine B assay; conditions: read-out: Activity
PC-3 = test: Growth inhibition of human PC3 cells assessed as cell growth at 10^-7 M by sulforhodamine B assay; conditions: read-out: Activity
SF-268 [12] = test: Growth inhibition of human SF268 cells by sulforhodamine B assay
CAKI-1 = test: Growth inhibition of human CAKI-1 cells assessed as cell growth at 10^-8 M by sulforhodamine B assay; conditions: read-out: Activity
[13] = Growth inhibition of human HCC2998 cells assessed as cell growth at 10^-8 M by sulforhodamine B assay; conditions: HCC 2998, read-out: Activity
BT-549 = test: Growth inhibition of human BT549 cells by sulforhodamine B assay
TK-10 [14] = test: Growth inhibition of human TK10 cells assessed as cell growth at 10^-8 M by sulforhodamine B assay; conditions: read-out: Activity
MCF7 = test: Growth inhibition of human MCF7 cells by sulforhodamine B assay
RPMI-8226 = test: Growth inhibition of human RPMI8226 cells assessed as cell growth at 10^-4 M by sulforhodamine B assay; conditions: read-out: Activity
TK-10 [15] = test: Growth inhibition of human TK10 cells by sulforhodamine B assay
COLO 205 = test: Growth inhibition of human COLO205 cells assessed as cell growth at 10^-8 M by sulforhodamine B assay; conditions: read-out: Activity
SW-620 = test: Growth inhibition of human SW620 cells assessed as cell growth at 10^-7 M by sulforhodamine B assay; conditions: read-out: Activity
T47D = test: Growth inhibition of human T47D cells assessed as cell growth at 10^-8 M by sulforhodamine B assay; conditions: read-out: Activity
U-251 = test: Growth inhibition of human U251 cells assessed as cell growth at 10^-8 M by sulforhodamine B assay; conditions: read-out: Activity
HOP-62 [16] = test: Growth inhibition of human HOP62 cells assessed as cell growth at 10^-7 M by sulforhodamine B assay; conditions: read-out: Activity
SF-268 [17] = test: Growth inhibition of human SF268 cells assessed as cell growth at 10^-6 M by sulforhodamine B assay; conditions: read-out: Activity
SF-539 = test: Growth inhibition of human SF539 cells assessed as cell growth at 10^-4 M by sulforhodamine B assay; conditions: read-out: Activity
NCI-H226 = test: Growth inhibition of human NCI-H226 cells assessed as cell growth at 10^-4 M by sulforhodamine B assay; conditions: read-out: Activity
A498 [18] = test: Growth inhibition of human A498 cells assessed as cell growth at 10^-7 M by sulforhodamine B assay; conditions: read-out: Activity
SK-MEL-28 = test: Growth inhibition of human SK-MEL-28 cells assessed as cell growth at 10^-7 M by sulforhodamine B assay; conditions: read-out: Activity
[19] = read-out: LC50 (the source's name)
[20] = read-out: pLC50 (the source's name) (converted)

CC(C)=CC(=O)O[C@@H]1CC(C)(C)C[C@H]2C3=CC[C@@H]4[C@@]5(C)CCC(=O)C(C)(C)[C@@H]5CC[C@@]4(C)[C@]3(C)CC[C@@]12C(=O)O
growth at 100 µM (A549): -41%
growth at 0.1 µM (MDA-MB-435): 98%
growth at 0.01 µM (SNB-75): 90%
GI50 (OVCAR-4 [1]; read-out: GI50): 5.07 µM
CC50 (OVCAR-4 [1]; [19]): > 100 µM
TGI (OVCAR-4 [1]; read-out: TGI): > 100 µM
GI50 (OVCAR-4 [1]; read-out: pGI50 (converted)): 5.01 µM
CC50 (OVCAR-4 [1]; [20]): > 100 µM
TGI (OVCAR-4 [1]; read-out: pTGI (converted)): > 100 µM
growth at 1 µM (TK-10 [2]): 98%
growth at 100 µM (OVCAR-4 [3]): 10%
growth at 0.01 µM (OVCAR-8): 95%
growth at 0.1 µM (SF-295 [4]): 83%
growth at 1 µM (MDA-MB-468): 74%
GI50 (NCI-H23; read-out: GI50): 3.96 µM
CC50 (NCI-H23; [19]): > 100 µM
TGI (NCI-H23; read-out: TGI): 51.9 µM
GI50 (NCI-H23; read-out: pGI50 (converted)): 3.98 µM
CC50 (NCI-H23; [20]): > 100 µM
TGI (NCI-H23; read-out: pTGI (converted)): 52.5 µM
growth at 0.01 µM (SR): 109%
growth at 1 µM (A498 [5]): 61%
GI50 (A498 [6]; read-out: GI50): 1.59 µM
CC50 (A498 [6]; [19]): > 100 µM
TGI (A498 [6]; read-out: TGI): 14.2 µM
GI50 (A498 [6]; read-out: pGI50 (converted)): 1.58 µM
CC50 (A498 [6]; [20]): > 100 µM
TGI (A498 [6]; read-out: pTGI (converted)): 14.1 µM
growth at 100 µM (SF-295 [7]): -59%
GI50 (SNB-19 [8]; read-out: GI50): 4.25 µM
CC50 (SNB-19 [8]; [19]): > 100 µM
TGI (SNB-19 [8]; read-out: TGI): > 100 µM
GI50 (SNB-19 [8]; read-out: pGI50 (converted)): 4.27 µM
CC50 (SNB-19 [8]; [20]): > 100 µM
TGI (SNB-19 [8]; read-out: pTGI (converted)): > 100 µM
growth at 100 µM [9]: -10%
growth at 0.01 µM (SK-MEL-5): 99%
growth at 0.01 µM (OVCAR-5): 94%
GI50 (DU-145; read-out: GI50): 5.12 µM
CC50 (DU-145; [19]): 98.3 µM
TGI (DU-145; read-out: TGI): 25.1 µM
GI50 (DU-145; read-out: pGI50 (converted)): 5.13 µM
CC50 (DU-145; [20]): 97.7 µM
TGI (DU-145; read-out: pTGI (converted)): 25.1 µM
growth at 0.1 µM (SNB-19 [10]): 88%
growth at 1 µM (HOP-62 [11]): 100%
growth at 0.1 µM (PC-3): 86%
GI50 (SF-268 [12]; read-out: GI50): 5.27 µM
LC50 (SF-268 [12]; read-out: LC50): > 100 µM
TGI (SF-268 [12]; read-out: TGI): 29.4 µM
GI50 (SF-268 [12]; read-out: pGI50 (converted)): 5.25 µM
LC50 (SF-268 [12]; read-out: pLC50 (converted)): > 100 µM
TGI (SF-268 [12]; read-out: pTGI (converted)): 29.5 µM
growth at 0.01 µM (CAKI-1): 95%
growth at 0.01 µM [13]: 97%
GI50 (BT-549; read-out: GI50): 4.79 µM
CC50 (BT-549; [19]): > 100 µM
TGI (BT-549; read-out: TGI): 25 µM
GI50 (BT-549; read-out: pGI50 (converted)): 4.79 µM
CC50 (BT-549; [20]): > 100 µM
TGI (BT-549; read-out: pTGI (converted)): 25.1 µM
growth at 0.01 µM (TK-10 [14]): 96%
GI50 (MCF7; read-out: GI50): 3.29 µM
CC50 (MCF7; [19]): > 100 µM
TGI (MCF7; read-out: TGI): > 100 µM
GI50 (MCF7; read-out: pGI50 (converted)): 3.31 µM
CC50 (MCF7; [20]): > 100 µM
TGI (MCF7; read-out: pTGI (converted)): > 100 µM
growth at 100 µM (RPMI-8226): -19%
GI50 (TK-10 [15]; read-out: GI50): 7.02 µM
CC50 (TK-10 [15]; [19]): > 100 µM
TGI (TK-10 [15]; read-out: TGI): 49.6 µM
GI50 (TK-10 [15]; read-out: pGI50 (converted)): 7.08 µM
CC50 (TK-10 [15]; [20]): > 100 µM
TGI (TK-10 [15]; read-out: pTGI (converted)): 50.1 µM
growth at 0.01 µM (COLO 205): 106%
growth at 0.1 µM (SW-620): 97%
growth at 0.01 µM (T47D): 103%
growth at 0.01 µM (U-251): 92%
growth at 0.1 µM (HOP-62 [16]): 97%
growth at 1 µM (SF-268 [17]): 93%
growth at 100 µM (SF-539): -50%
growth at 100 µM (NCI-H226): 12%
growth at 0.1 µM (A498 [18]): 80%
growth at 0.1 µM (SK-MEL-28): 99%
